IC50 and melting point data for 5 compounds are collected here from patent US20070293512A1, “Condensed Pyrimidine Deriviative and Xanthine Oxidase Inhibitor” (priority 2004, published 2007).

Data set [1] deals with T1, Cow milk Xanthine Oxidase (Bos taurus, UniProt P80457).
T1 construct: Cow milk Xanthine Oxidase (Roche); purchased Roche; host or cells: cow milk (natural source)
As to the kind of experiment: Xanthine oxidase inhibition, in vitro (oxidation of xanthine, absorbance at 290 nm). In kind it is biochemical. To be noted: xanthine 250 μM, 50 mM phosphate buffer pH 7.5, 30° C., 10 minutes. The procedure: The xanthine oxidase inhibiting action (in vitro test) of the compound of the invention was confirmed by measuring inhibition of oxidation of xanthine by xanthine oxidase, as described in Example 50. As is clear from Tables 11 and 12, the compounds of the invention show excellent xanthine oxidase inhibiting action.
Pharmacological Experiment 1 (In Vitro Measuring Method)
1. Preparation of Test Sample
The test compound was dissolved in dimethylsulfoxide and diluted with 50 mM phosphate buffer (pH 7.5), to give a solution of a predetermined concentration.
125 μL of each of the solutions of the test compound having different concentrations was added to 1 mL of a solution of Xanthine (SIGMA, 250 μM) in the 50 mM phosphor buffer (pH 7.5). The mixture was then pre-incubated at 30° C. for 5 min. Subsequently, to the pre-incubated mixture was added 125 μL of Cow milk Xanthine Oxidase (Roche) diluted with the 50 mM phosphate buffer (pH 7.5) to 70 mU/mL, and the mixture was subjected to reaction at 30° C. for 10 minutes. Then, 1N hydrochloric acid, (200 μL) was added to the reaction mixture to terminate the reaction. Subsequently, absorbance at OD 290 nm was measured by means of a spectrophotometer (Shimadzu UV-160A)., to obtain a inhibition ratio. The measured inhibition ration was used to obtain […]
The inhibition ratio was calculated according to the following formula: Inhibition ratio (%)=[1−(B−C)/(A−C)]×100 • A: absorbance of control • B: absorbance measured on a sample containing test compound • C: absorbance of blank (Test Results)

T1 sequence (P80457 whole entry): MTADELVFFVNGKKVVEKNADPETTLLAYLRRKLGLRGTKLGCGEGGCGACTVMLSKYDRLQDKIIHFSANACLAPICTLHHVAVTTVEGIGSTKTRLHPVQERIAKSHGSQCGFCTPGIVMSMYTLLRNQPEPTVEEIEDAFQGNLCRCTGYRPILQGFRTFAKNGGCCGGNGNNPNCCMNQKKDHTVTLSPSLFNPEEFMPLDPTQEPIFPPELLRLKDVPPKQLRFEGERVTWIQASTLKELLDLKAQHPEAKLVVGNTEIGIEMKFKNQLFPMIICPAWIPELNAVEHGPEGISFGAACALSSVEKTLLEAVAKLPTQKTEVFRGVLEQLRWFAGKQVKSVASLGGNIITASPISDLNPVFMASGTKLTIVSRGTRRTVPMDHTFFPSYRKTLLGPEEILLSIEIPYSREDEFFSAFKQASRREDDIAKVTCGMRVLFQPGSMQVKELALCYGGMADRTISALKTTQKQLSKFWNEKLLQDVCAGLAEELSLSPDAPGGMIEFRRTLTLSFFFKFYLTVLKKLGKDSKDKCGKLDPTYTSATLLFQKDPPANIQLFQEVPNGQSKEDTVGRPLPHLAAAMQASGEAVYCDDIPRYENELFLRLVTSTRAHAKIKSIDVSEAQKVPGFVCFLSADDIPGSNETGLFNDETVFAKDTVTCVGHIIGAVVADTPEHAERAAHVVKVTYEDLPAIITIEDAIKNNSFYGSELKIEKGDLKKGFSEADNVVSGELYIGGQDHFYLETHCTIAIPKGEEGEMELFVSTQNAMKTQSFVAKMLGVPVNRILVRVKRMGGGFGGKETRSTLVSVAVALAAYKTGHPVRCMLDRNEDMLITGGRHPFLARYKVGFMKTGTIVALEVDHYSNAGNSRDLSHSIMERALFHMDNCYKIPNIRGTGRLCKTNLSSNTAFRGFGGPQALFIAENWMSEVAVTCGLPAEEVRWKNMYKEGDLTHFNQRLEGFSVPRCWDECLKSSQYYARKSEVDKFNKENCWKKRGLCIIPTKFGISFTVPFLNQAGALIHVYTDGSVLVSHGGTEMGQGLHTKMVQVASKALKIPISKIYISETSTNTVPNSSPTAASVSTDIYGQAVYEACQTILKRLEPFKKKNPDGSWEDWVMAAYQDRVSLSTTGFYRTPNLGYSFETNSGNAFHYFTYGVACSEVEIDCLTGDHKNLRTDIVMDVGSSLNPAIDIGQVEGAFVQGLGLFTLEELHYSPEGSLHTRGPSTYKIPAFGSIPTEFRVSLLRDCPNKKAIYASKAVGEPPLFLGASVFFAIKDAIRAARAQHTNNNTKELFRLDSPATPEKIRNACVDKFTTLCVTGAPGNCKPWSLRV

In general, IC50 refers to the concentration that gives 50% inhibition. What is called melting point is the temperature of the solid-liquid transition. In the case of `O=[N+]([O-])c1cc(-c2nc3c(O)ncnc3s2)ccc1Oc1ccccc1` [Example 7, 4-Hydroxy-2-(3-nitro-4-phenoxyphenyl)-thiazolo[5,4-d]pyrimidine], the melting point was 278 to 281 °C (dec.). In data set [1], the IC50 is 8.8 nM.

Take `O=[N+]([O-])c1cc(-c2nc3c(O)ncnc3s2)ccc1Oc1ccc(Cl)cc1` [Example 5, 2-[4-(4-Chlorophenoxy)-3-nitrophenyl]-4-hydroxythiazolo[5,4-d]pyrimidine]: the melting point was 304 to 306 °C (dec.). In data set [1], 20.2 nM corresponded to half-maximal inhibition (IC50).

`O=[N+]([O-])c1cc(-c2nc3c(O)ncnc3s2)ccc1Oc1cccnc1` [Example 32, 4-Hydroxy-2-[3-nitro-4-(3-pyridyloxy)-phenyl]thiazolo[5,4-d]pyrimidine]: the melting point is 276 to 280 °C (dec.). Moreover, the IC50 in data set [1] stood at 9.2 nM.

As for `O=[N+]([O-])c1cc(-c2nc3c(O)ncnc3s2)ccc1Oc1ccc(F)cc1` [Example 12, 2-[4-(4-Fluorophenoxy)-3-nitrophenyl]-4-hydroxythiazolo[5,4-d]pyrimidine], the melting point is 282 to 284 °C (dec.). Also, the half-maximal inhibitory concentration (IC50) in data set [1] stood at 9.3 nM.

As to `O=[N+]([O-])c1cc(-c2nc3c(O)ncnc3o2)ccc1Sc1ccc(Cl)cc1` [Example 6, 2-[4-(4-Chlorophenylthio)-3-nitrophenyl]-4-hydroxyoxazolo[5,4-d]pyrimidine], the melting point was above 250 °C. Also, the IC50 in data set [1] came to 30.2 nM.
